{"source": "patent US12527782B2", "about": "“Use of hexokinase 2/mitochondria-detaching compounds for treating hexokinase-2 (HK2)-expressing cancers” (Vidac Pharma Ltd., priority 2016, dated 2026)", "key": {"[1]": {"system": "AK/cSCC mouse model of chronic UVB exposure", "experiment": "AK/cSCC mouse model of chronic UVB exposure: histopathology and IHC of epidermis", "assay_type": "in vivo", "details": "for HK2 protein levels in AK areas (IHC): 5% Formula C", "protocol": "The formulation ingredients for vehicle, 2.5%, and 5% Formula C ointment consisted of: 32% Gelucire44/14® (Gattefosse, Saint-Priest, France), and 68% combined Labrasol® (Gattefosse, Saint-Priest, France) with corresponding amount of Formula C (w/w). New ointments were prepared every 2 weeks. The 40% topical solution was prepared just prior to use by mixing (w/w) 60% propylene glycol (Sigma, St. Louis, MO, USA) with 40% Formula C.\nHistopathological analysis and IHC was performed according to standard protocols. Primary antibodies used: rabbit anti-HK1 and rabbit anti-HK2 (C35C4 and C64G5, CST, Danvers, MA), rabbit anti cleaved caspase 3 (PP229, Biocare Medical, Concord, CA), Secondary antibody was goat anti-Rabbit IgG(H+L) (474-1506, KPL, Gaithersburg, MD). Rabbit anti-CD3 (SP7), rabbit anti-F4/80 (SB-M3072, SB-M4152, Nordic Biosite, Taby, Sweden), mouse anti-Langerin/CD207 (DDX0361, Dendritics, Lyon, France). For these three primary antibodies, a polymer system was used as a secondary antibody (KDB-10046 and KDB-10007, Nordic Biosite, Taby, Sweden). Semi-quantitative analysis was done in a blinded manner by a single experienced pathologist scoring ×40 high power fields, 7 different fields per slide.\nThe effect of Formula C on cell proliferation and apoptosis was tested in an AK/cSCC mouse model of chronic UVB exposure. Forty-eight SKH-1 hairless female mice were chronically exposed to UVB radiation for 16 weeks. By that time, more than 60% of the animals had developed at least one SCC lesion. Three days after the final irradiation dose, the mice were randomly assigned to 1 of 4 treatment groups (N=12 mice/group) and a 50-day treatment phase started. Treatment groups included: vehicle, 2.5% or 5% Formula C ointment applied once-daily for 50 days, or 40% Formula C topical solution applied once-daily for the first 5 days of every three-week cycle (total of three treatment cycles)."}, "Melanoma MEXF 535": {"system": "Melanoma MEXF 535", "experiment": "CFA, MEXF 535", "assay_type": "cell-based, human", "details": "PDX/CFA", "protocol": "(§1) CFA was performed by Charles River Laboratories (Freiburg, Germany) in 96-well plate format according to a modified two-layer soft agar assay. The origin of the tumor xenografts has been described (Fiebig et al. 1989, incorporated herein by reference). The list of tumors used in this study is detailed in Table 1."}, "[2]": {"system": "Leukemia (AML) LEXFAM HL-60", "experiment": "CFA, LEXFAM HL-60", "assay_type": "cell-based, human", "details": "Cell line/CFA", "protocol": "as §1"}, "[3]": {"system": "Leukemia (AML) LEXFAM PL-21", "experiment": "CFA, LEXFAM PL-21", "assay_type": "cell-based, human", "details": "Cell line/CFA", "protocol": "as §1"}, "[4]": {"system": "Leukemia (AML) LEXFAM KG-1a", "experiment": "CFA, LEXFAM KG-1a", "assay_type": "cell-based, human", "details": "Cell line/CFA", "protocol": "as §1"}, "Kidney RXF 1220": {"system": "Kidney RXF 1220", "experiment": "CFA, RXF 1220", "assay_type": "cell-based, human", "details": "PDX/CFA", "protocol": "as §1"}, "[5]": {"system": "Leukemia (AML) LEXFAM KG-1", "experiment": "CFA, LEXFAM KG-1", "assay_type": "cell-based, human", "details": "Cell line/CFA", "protocol": "as §1"}, "Stomach GXF 97": {"system": "Stomach GXF 97", "experiment": "CFA, GXF 97", "assay_type": "cell-based, human", "details": "PDX/CFA", "protocol": "as §1"}, "[6]": {"experiment": "Phase 1a single topical application, safety and tolerability", "assay_type": "in vivo, human", "details": "healthy volunteers", "protocol": "The Phase 1a clinical trial was a randomized, double-blinded, placebo-controlled, dose-escalation study in healthy older-adult volunteers to evaluate the safety, tolerability, and pharmacokinetics of a single topical dermal application of Formula C ointment. The study was conducted under FDA IND in a Phase 1 unit in the United States.\nFifteen healthy volunteers, aged 35-70, were sequentially assigned to 1 of 3 consecutive treatment cohorts (5%, 10% or 20% Formula C ointment, respectively). Five subjects were randomized in a double-blind fashion in each dose cohort: 4 subjects received active Formula C ointment and 1 received matched placebo (0% Formula C; vehicle control). The study ointment (250 mg) was applied once to a 25 centimeter squared area of skin on the forehead of each volunteer."}, "[7]": {"system": "Cutanous T cell lymphoma Hut-78", "experiment": "XTT cell viability assay, Hut-78", "assay_type": "cell-based, human", "details": "Cell line/XTT", "protocol": "(§2) For XTT assays, cells were plated in 96-well plates (5,000 cells per well) for 24 hours. Cells were then incubated with different concentrations of Formula C in triplicates for 72 hr in DMEM supplemented with 0.5% FCS and 5 mM Glucose. Cell viability was evaluated using 2,3-bis-(2-methoxy-4-nitro-5-sulfophenyl)-2H-tetrazolium-5-carboxanilide (XTT)-based colorimetric assay kit (Biological Industries Ltd., Kibbutz Beit-Haemek, Israel). The optical density was measured by an Infinite 200 ELISA reader at 450 nm and reference was measured at 630 nm (Tecan, Männedorf, Switzerland)."}, "[8]": {"system": "Lung (NSCLC, large) LXFL 1072", "experiment": "CFA, LXFL 1072", "assay_type": "cell-based, human", "details": "PDX/CFA", "protocol": "as §1"}, "[9]": {"system": "Leukemia (BCLL) LEXFCL MEC-1", "experiment": "CFA, LEXFCL MEC-1", "assay_type": "cell-based, human", "details": "Cell line/CFA", "protocol": "as §1"}, "[10]": {"system": "Lung (NSCLC, epidermoid) LXFE 690", "experiment": "CFA, LXFE 690", "assay_type": "cell-based, human", "details": "PDX/CFA", "protocol": "as §1"}, "[11]": {"system": "HT-297.T Actinic keratosis cells", "experiment": "XTT cell viability assay, HT-297.T", "assay_type": "cell-based, human", "details": "Actinic keratosis HT-297.T; Cell line/XTT; 72 hr", "protocol": "(§3) A431 (human skin SCC), HT-297.T (human AK), and HaCaT transformed normal keratinocyte cell lines were from ATCC (Manassas, VA) and were maintained in DMEM supplemented with 10% FCS, 4 mM L-Gln, 1 mM sodium pyruvate, 100 U/mL penicillin, 1 μg/mL streptomycin. Human HK1 and HK2 plasmids were purchased from Addgene (Cambridge, MA) and were purified from E. Coli. VDAC1 was purified from sheep liver mitochondria as described (Arbel et al. 2012, incorporated herein by reference). Human skin tissue microarray (SK208 and SK 805) were purchased from US Biomax Inc. (Rockville, MD).\nas §2"}, "Stomach GXF 214": {"system": "Stomach GXF 214", "experiment": "CFA, GXF 214", "assay_type": "cell-based, human", "details": "PDX/CFA", "protocol": "as §1"}, "[12]": {"system": "Leukemia (BCLL) LEXFCM EM-2", "experiment": "CFA, LEXFCM EM-2", "assay_type": "cell-based, human", "details": "Cell line/CFA", "protocol": "as §1"}, "A431 Skin SCC cells": {"system": "A431 Skin SCC cells", "experiment": "XTT cell viability assay, A431", "assay_type": "cell-based, human", "details": "Cell line/XTT, 72 hr", "protocol": "as §3, §2"}, "Head & Neck HNXF 2205": {"system": "Head & Neck HNXF 2205", "experiment": "CFA, HNXF 2205", "assay_type": "cell-based, human", "details": "PDX/CFA", "protocol": "as §1"}}, "note": "“Also recorded” adds a separate entry of the source."}
{"smiles": "CC/C=C\\CC1C(=O)CCC1CC(=O)Oc1cccc2cccnc12", "note": "(stereo not shown) [Formula C]", "values": [{"measurement": "cleaved caspase-3 positive cells (IHC), apoptosis in epidermis", "setting": "[1]; UVB-exposed SKH-1 mice, Day 50", "value": "induces apoptosis; also recorded: statistically significant induction of apoptosis"}, {"measurement": "mitotic index in AK regions of the skin (epidermis)", "setting": "[1]; UVB-exposed SKH-1 mice, Day 50, all Formula C treatment groups vs vehicle", "value": "reduces cell proliferation; also recorded: significantly reduced"}, {"measurement": "epidermal thickness (histopathology)", "setting": "[1]; UVB-exposed SKH-1 mice, topical treatment, data not shown", "value": "thinner epidermis"}, {"measurement": "HK2 staining in epidermis (IHC)", "setting": "[1]; UVB-exposed mice, 5% Formula C ointment, 50 days of treatment", "value": "decreases after 50 days; also recorded: HK2 staining levels are low"}, {"measurement": "HK2 protein levels in AK areas (IHC)", "setting": "[1]; UVB-exposed mice, 2 days of treatment, satellite study", "value": "dramatic decrease in HK2 protein levels"}, {"measurement": "HK2 protein levels in AK areas (IHC)", "setting": "[1]; UVB-exposed mice, one day of treatment, data not shown", "value": "did not show this effect"}, {"measurement": "IC50", "setting": "Melanoma MEXF 535", "value": 538, "unit": "nM"}, {"measurement": "IC50", "setting": "[2]", "value": 1540, "unit": "nM"}, {"measurement": "IC50", "setting": "[3]", "value": 1740, "unit": "nM"}, {"measurement": "IC50", "setting": "[4]", "value": 1920, "unit": "nM"}, {"measurement": "IC50", "setting": "Kidney RXF 1220", "value": 6330, "unit": "nM"}, {"measurement": "IC50", "setting": "[5]", "value": 1160, "unit": "nM"}, {"measurement": "IC50", "setting": "Stomach GXF 97", "value": 6450, "unit": "nM"}, {"measurement": "clinically significant changes at application sites, vital signs, physical examinations, clinical laboratory results, ECGs, Holter monitors", "setting": "[6]; single topical application", "value": "No clinically significant changes"}, {"measurement": "severity and course of adverse events", "setting": "[6]; single topical application", "value": "mild, short-lived and reversible"}, {"measurement": "serious adverse events", "setting": "[6]; single topical application of 250 mg 5%, 10% or 20% ointment to 25 cm2 forehead", "value": "No serious adverse events"}, {"measurement": "IC50", "setting": "[7]", "value": 1060, "unit": "nM"}, {"measurement": "IC50", "setting": "[8]", "value": 1570, "unit": "nM"}, {"measurement": "IC50", "setting": "[9]", "value": 1160, "unit": "nM"}, {"measurement": "IC50", "setting": "[10]", "value": 6820, "unit": "nM"}, {"measurement": "IC50", "setting": "[11]", "value": 228, "unit": "nM"}, {"measurement": "IC50", "setting": "Stomach GXF 214", "value": 1940, "unit": "nM"}, {"measurement": "IC50", "setting": "[12]", "value": 2780, "unit": "nM"}, {"measurement": "IC50", "setting": "A431 Skin SCC cells", "value": 14, "unit": "nM"}, {"measurement": "IC50", "setting": "Head & Neck HNXF 2205", "value": 3960, "unit": "nM"}]}
